# Values quoted from earlier work, collected in patent publication US20190192552A1, “PHARMACEUTICAL COMPOSITIONS AND METHODS FOR TREATING KELOIDS, HY[…] AND WOUNDS, AND FOR PROVIDING IMPROVED SKIN CARE” (Cormedix Inc., priority 2017, published 2019).
# System: Microbes
# Details: microbes killed and resulting toxins inactivated
structure (smiles),measurement,value
"O=S1(=O)CCN(CN2CCS(=O)(=O)NC2)CN1 [taurolidine, 4,4′-methylene-bis(tetrahydro-1,2,4-thiadiazine)-1,1,1′,1′,-tetraoxide]",destruction time in vitro,approximately 30 minutes
